# Measurements published in PubChem BioAssay (NCI).
#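 Five concentrations, 48 hours, 96-well plates. TGI denotes the concentration required for complete inhibition of growth.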
# Legend:
# Test in all cases: NCI-60 cell line screen, 48 h
# 786-0 renal = test system: 786-0 renal
# A498 renal = test system: A498 renal
# A549 NSCLC = test system: A549 NSCLC
# ACHN renal = test system: ACHN renal
# BT-549 breast = test system: BT-549 breast
# CAKI-1 renal = test system: CAKI-1 renal
# CCRF-CEM leukemia = test system: CCRF-CEM leukemia
# COLO 205 colon = test system: COLO 205 colon
# DLD-1 colon = test system: DLD-1 colon
# DMS 114 small cell lung = test system: DMS 114 small cell lung
# DMS 273 small cell lung = test system: DMS 273 small cell lung
# DU-145 prostate = test system: DU-145 prostate
# EKVX NSCLC = test system: EKVX NSCLC
# HCC-2998 colon = test system: HCC-2998 colon
# HCT-116 colon = test system: HCT-116 colon
# HCT-15 colon = test system: HCT-15 colon
# HL-60(TB) leukemia = test system: HL-60(TB) leukemia
# HOP-18 NSCLC = test system: HOP-18 NSCLC
# HOP-62 NSCLC = test system: HOP-62 NSCLC
# HOP-92 NSCLC = test system: HOP-92 NSCLC
# HS 578T breast = test system: HS 578T breast
# HT29 colon = test system: HT29 colon
# IGROV1 ovarian = test system: IGROV1 ovarian
# K-562 leukemia = test system: K-562 leukemia
# KM12 colon = test system: KM12 colon
# KM20L2 colon = test system: KM20L2 colon
# LOX IMVI melanoma = test system: LOX IMVI melanoma
# LXFL 529 NSCLC = test system: LXFL 529 NSCLC
# M14 melanoma = test system: M14 melanoma
# M19-MEL melanoma = test system: M19-MEL melanoma
# MALME-3M melanoma = test system: MALME-3M melanoma
# MCF7 breast = test system: MCF7 breast
# MDA-MB-231 breast = test system: MDA-MB-231 breast
# MDA-MB-435 = test system: MDA-MB-435
# MDA-N = test system: MDA-N
# MOLT-4 leukemia = test system: MOLT-4 leukemia
# NCI-H226 lung = test system: NCI-H226 lung
# NCI-H23 lung = test system: NCI-H23 lung
# NCI-H460 lung = test system: NCI-H460 lung
# NCI-H522 lung = test system: NCI-H522 lung
# NCI/ADR-RES ovarian = test system: NCI/ADR-RES ovarian
# OVCAR-3 ovarian = test system: OVCAR-3 ovarian
# OVCAR-5 ovarian = test system: OVCAR-5 ovarian
# OVCAR-8 ovarian = test system: OVCAR-8 ovarian
# PC-3 prostate = test system: PC-3 prostate
# RPMI-8226 leukemia = test system: RPMI-8226 leukemia
# RXF 393 renal = test system: RXF 393 renal
# SF-268 CNS = test system: SF-268 CNS
# SF-295 CNS = test system: SF-295 CNS
# SF-539 CNS = test system: SF-539 CNS
# SK-MEL-2 melanoma = test system: SK-MEL-2 melanoma
# SK-MEL-28 melanoma = test system: SK-MEL-28 melanoma
# SK-MEL-5 melanoma = test system: SK-MEL-5 melanoma
# SK-OV-3 ovarian = test system: SK-OV-3 ovarian
# SN12C renal = test system: SN12C renal
# SNB-19 CNS = test system: SNB-19 CNS
# SNB-75 CNS = test system: SNB-75 CNS
# SNB-78 CNS = test system: SNB-78 CNS
# SR leukemia = test system: SR leukemia
# SW-620 colon = test system: SW-620 colon
# T-47D breast = test system: T-47D breast
# TK-10 renal = test system: TK-10 renal
# U251 CNS = test system: U251 CNS
# UACC-257 melanoma = test system: UACC-257 melanoma
# UACC-62 melanoma = test system: UACC-62 melanoma
# UO-31 renal = test system: UO-31 renal
# OVCAR-4 ovarian = test system: OVCAR-4 ovarian
compound,measurement,setting,value
CC1CSC(=S)N1C(=O)N1C(=S)SCC1C (stereo unspecified),TGI,786-0 renal,53.6 µM
same,TGI,A498 renal,60.7 µM
same,TGI,A549 NSCLC,91.8 µM
same,TGI,ACHN renal,36.1 µM
same,TGI,BT-549 breast,63.9 µM
same,TGI,CAKI-1 renal,61.7 µM
same,TGI,CCRF-CEM leukemia,48.5 µM
same,TGI,COLO 205 colon,37.2 µM
same,TGI,DLD-1 colon,44.4 µM
same,TGI,DMS 114 small cell lung,> 100 µM
same,TGI,DMS 273 small cell lung,49.5 µM
same,TGI,DU-145 prostate,45.2 µM
same,TGI,EKVX NSCLC,63.4 µM
same,TGI,HCC-2998 colon,> 80.5 µM
same,TGI,HCT-116 colon,42.9 µM
same,TGI,HCT-15 colon,34.8 µM
same,TGI,HL-60(TB) leukemia,88.3 µM
same,TGI,HOP-18 NSCLC,> 100 µM
same,TGI,HOP-62 NSCLC,> 82.8 µM
same,TGI,HOP-92 NSCLC,73 µM
same,TGI,HS 578T breast,> 82.9 µM
same,TGI,HT29 colon,73 µM
same,TGI,IGROV1 ovarian,53.3 µM
same,TGI,K-562 leukemia,60.9 µM
same,TGI,KM12 colon,84.9 µM
same,TGI,KM20L2 colon,> 100 µM
same,TGI,LOX IMVI melanoma,36.4 µM
same,TGI,LXFL 529 NSCLC,> 100 µM
same,TGI,M14 melanoma,53.9 µM
same,TGI,M19-MEL melanoma,81.7 µM
same,TGI,MALME-3M melanoma,45.2 µM
same,TGI,MCF7 breast,60.5 µM
same,TGI,MDA-MB-231 breast,64.8 µM
same,TGI,MDA-MB-435,46.6 µM
same,TGI,MDA-N,50.7 µM
same,TGI,MOLT-4 leukemia,81.9 µM
same,TGI,NCI-H226 lung,71.7 µM
same,TGI,NCI-H23 lung,43.1 µM
same,TGI,NCI-H460 lung,59 µM
same,TGI,NCI-H522 lung,26.7 µM
same,TGI,NCI/ADR-RES ovarian,41.7 µM
same,TGI,OVCAR-3 ovarian,82.3 µM
same,TGI,OVCAR-5 ovarian,64.7 µM
same,TGI,OVCAR-8 ovarian,32.3 µM
same,TGI,PC-3 prostate,67.2 µM
same,TGI,RPMI-8226 leukemia,66.2 µM
same,TGI,RXF 393 renal,38.6 µM
same,TGI,SF-268 CNS,74.6 µM
same,TGI,SF-295 CNS,98.1 µM
same,TGI,SF-539 CNS,41.4 µM
same,TGI,SK-MEL-2 melanoma,53.2 µM
same,TGI,SK-MEL-28 melanoma,41.9 µM
same,TGI,SK-MEL-5 melanoma,34.8 µM
same,TGI,SK-OV-3 ovarian,> 100 µM
same,TGI,SN12C renal,54.4 µM
same,TGI,SNB-19 CNS,> 100 µM
same,TGI,SNB-75 CNS,88.1 µM
same,TGI,SNB-78 CNS,> 100 µM
same,TGI,SR leukemia,59.3 µM
same,TGI,SW-620 colon,49.4 µM
same,TGI,T-47D breast,> 100 µM
same,TGI,TK-10 renal,74.8 µM
same,TGI,U251 CNS,53.5 µM
same,TGI,UACC-257 melanoma,43.4 µM
same,TGI,UACC-62 melanoma,27.4 µM
same,TGI,UO-31 renal,58.7 µM
O=C1/C(=C/c2ccccc2)CN(C(=O)C(F)(F)F)C/C1=C\c1ccccc1,TGI,786-0 renal,3.28 µM
same,TGI,A498 renal,4.41 µM
same,TGI,A549 NSCLC,12.1 µM
same,TGI,ACHN renal,4.99 µM
same,TGI,CCRF-CEM leukemia,8.03 µM
same,TGI,COLO 205 colon,5.11 µM
same,TGI,DLD-1 colon,4.27 µM
same,TGI,DMS 114 small cell lung,3.33 µM
same,TGI,DMS 273 small cell lung,2.95 µM
same,TGI,HCT-116 colon,1.08 µM
same,TGI,HCT-15 colon,5.33 µM
same,TGI,HL-60(TB) leukemia,2.85 µM
same,TGI,HOP-18 NSCLC,18.4 µM
same,TGI,HOP-62 NSCLC,29.6 µM
same,TGI,HT29 colon,3.01 µM
same,TGI,IGROV1 ovarian,5.55 µM
same,TGI,K-562 leukemia,> 100 µM
same,TGI,KM12 colon,3.98 µM
same,TGI,KM20L2 colon,4.34 µM
same,TGI,LOX IMVI melanoma,2.5 µM
same,TGI,LXFL 529 NSCLC,3.26 µM
same,TGI,M14 melanoma,3.29 µM
same,TGI,M19-MEL melanoma,3.1 µM
same,TGI,MALME-3M melanoma,15.9 µM
same,TGI,MOLT-4 leukemia,79.6 µM
same,TGI,NCI-H23 lung,4.52 µM
same,TGI,NCI-H460 lung,2.97 µM
same,TGI,NCI-H522 lung,5.77 µM
same,TGI,OVCAR-3 ovarian,10.7 µM
same,TGI,OVCAR-4 ovarian,4.72 µM
same,TGI,OVCAR-5 ovarian,8.37 µM
same,TGI,OVCAR-8 ovarian,3.37 µM
same,TGI,RPMI-8226 leukemia,0.932 µM
same,TGI,RXF 393 renal,3.63 µM
same,TGI,SF-295 CNS,3.13 µM
same,TGI,SF-539 CNS,4.06 µM
same,TGI,SK-MEL-2 melanoma,23.1 µM
same,TGI,SK-MEL-28 melanoma,3.45 µM
same,TGI,SK-MEL-5 melanoma,3.26 µM
same,TGI,SN12C renal,3.12 µM
same,TGI,SNB-19 CNS,14.8 µM
same,TGI,SNB-75 CNS,19 µM
same,TGI,SNB-78 CNS,11.4 µM
same,TGI,SR leukemia,5.48 µM
same,TGI,SW-620 colon,1.83 µM
same,TGI,TK-10 renal,13.4 µM
same,TGI,U251 CNS,2.95 µM
same,TGI,UACC-257 melanoma,3.32 µM
same,TGI,UACC-62 melanoma,3.76 µM
same,TGI,UO-31 renal,4.77 µM
